Reference: ChEMBL document CHEMBL1155172, “Distribution of radioactivity in bone and related structures following administration of [14C]dalbavancin to New Zealand white rabbits” (Antimicrob Agents Chemother, 2007)

Key:
[1] = Drug level in New Zealand white rabbit ligament assessed as [14C]dalbavancin level per gram of tissue at 20 mg/kg, iv after 336 hrs by autoradioluminography; format: ADME, organism-based, Oryctolagus cuniculus; set-up: dose 20 mg/kg, route intravenous; conditions: in vivo
[2] = Drug level in New Zealand white rabbit synovial space assessed as [14C]dalbavancin level per gram of tissue at 20 mg/kg, iv after 24 hrs by autoradioluminography; format: ADME, organism-based, Oryctolagus cuniculus; set-up: dose 20 mg/kg, route intravenous; conditions: in vivo
[3] = Drug level in New Zealand white rabbit synovial space assessed as [14C]dalbavancin level per gram of tissue at 20 mg/kg, iv after 120 hrs by autoradioluminography; format: ADME, organism-based, Oryctolagus cuniculus; set-up: dose 20 mg/kg, route intravenous; conditions: in vivo
[4] = Drug level in New Zealand white rabbit meniscus assessed as [14C]dalbavancin level per gram of tissue at 20 mg/kg, iv after 12 hrs by autoradioluminography; format: ADME, organism-based, Oryctolagus cuniculus; set-up: dose 20 mg/kg, route intravenous; conditions: in vivo
[5] = Drug level in New Zealand white rabbit meniscus assessed as [14C]dalbavancin level per gram of tissue at 20 mg/kg, iv after 72 hrs by autoradioluminography; format: ADME, organism-based, Oryctolagus cuniculus; set-up: dose 20 mg/kg, route intravenous; conditions: in vivo
[6] = Drug level in New Zealand white rabbit bone marrow assessed as [14C]dalbavancin level per gram of tissue at 20 mg/kg, iv after 12 hrs by autoradioluminography; format: ADME, organism-based, Oryctolagus cuniculus; set-up: dose 20 mg/kg, route intravenous; conditions: in vivo
[7] = Drug level in New Zealand white rabbit bone marrow assessed as [14C]dalbavancin level per gram of tissue at 20 mg/kg, iv after 120 hrs by autoradioluminography; format: ADME, organism-based, Oryctolagus cuniculus; set-up: dose 20 mg/kg, route intravenous; conditions: in vivo
[8] = Drug level in New Zealand white rabbit bone marrow assessed as [14C]dalbavancin level per gram of tissue at 20 mg/kg, iv after 168 hrs by autoradioluminography; format: ADME, organism-based, Oryctolagus cuniculus; set-up: dose 20 mg/kg, route intravenous; conditions: in vivo
[9] = Drug level in New Zealand white rabbit bone marrow assessed as [14C]dalbavancin level per gram of tissue at 20 mg/kg, iv after 336 hrs by autoradioluminography; format: ADME, organism-based, Oryctolagus cuniculus; set-up: dose 20 mg/kg, route intravenous; conditions: in vivo
[10] = Drug level in New Zealand white rabbit skeletal muscle assessed as [14C]dalbavancin level per gram of tissue at 20 mg/kg, iv after 336 hrs by autoradioluminography; format: ADME, organism-based, Oryctolagus cuniculus; set-up: dose 20 mg/kg, route intravenous; conditions: in vivo
[11] = system: Streptococcus; assay: Antibacterial activity against Streptococcus; format: functional
[12] = system: Blood; assay: Drug level in New Zealand white rabbit blood assessed as [14C]dalbavancin level per gram of tissue at 20 mg/kg, iv after 120 hrs by autoradioluminography; format: ADME, organism-based, Oryctolagus cuniculus; set-up: dose 20 mg/kg, route intravenous; conditions: in vivo
[13] = Drug level in New Zealand white rabbit periostium assessed as [14C]dalbavancin level per gram of tissue at 20 mg/kg, iv after 168 hrs by autoradioluminography; format: ADME, organism-based, Oryctolagus cuniculus, Periosteum; set-up: dose 20 mg/kg, route intravenous; conditions: in vivo
[14] = Drug level in New Zealand white rabbit articular cartilage assessed as [14C]dalbavancin level per gram of tissue at 20 mg/kg, iv after 120 hrs by autoradioluminography; format: ADME, organism-based, Oryctolagus cuniculus; set-up: dose 20 mg/kg, route intravenous; conditions: in vivo
[15] = Drug level in New Zealand white rabbit compact bone assessed as [14C]dalbavancin level per gram of tissue at 20 mg/kg, iv after 24 hrs by autoradioluminography; format: ADME, organism-based, Oryctolagus cuniculus, Bone element; set-up: dose 20 mg/kg, route intravenous; conditions: in vivo
[16] = Drug level in New Zealand white rabbit compact bone assessed as [14C]dalbavancin level per gram of tissue at 20 mg/kg, iv after 72 hrs by autoradioluminography; format: ADME, organism-based, Oryctolagus cuniculus, Bone element; set-up: dose 20 mg/kg, route intravenous; conditions: in vivo
[17] = Drug level in New Zealand white rabbit compact bone assessed as [14C]dalbavancin level per gram of tissue at 20 mg/kg, iv after 120 hrs by autoradioluminography; format: ADME, organism-based, Oryctolagus cuniculus, Bone element; set-up: dose 20 mg/kg, route intravenous; conditions: in vivo
[18] = Drug level in New Zealand white rabbit compact bone assessed as [14C]dalbavancin level per gram of tissue at 20 mg/kg, iv after 168 hrs by autoradioluminography; format: ADME, organism-based, Oryctolagus cuniculus, Bone element; set-up: dose 20 mg/kg, route intravenous; conditions: in vivo
[19] = Drug level in New Zealand white rabbit epiphyseal plate assessed as [14C]dalbavancin level per gram of tissue at 20 mg/kg, iv after 24 hrs by autoradioluminography; format: ADME, organism-based, Oryctolagus cuniculus; set-up: dose 20 mg/kg, route intravenous; conditions: in vivo
[20] = Drug level in New Zealand white rabbit ligament assessed as [14C]dalbavancin level per gram of tissue at 20 mg/kg, iv after 12 hrs by autoradioluminography; format: ADME, organism-based, Oryctolagus cuniculus; set-up: dose 20 mg/kg, route intravenous; conditions: in vivo
[21] = Drug level in New Zealand white rabbit ligament assessed as [14C]dalbavancin level per gram of tissue at 20 mg/kg, iv after 72 hrs by autoradioluminography; format: ADME, organism-based, Oryctolagus cuniculus; set-up: dose 20 mg/kg, route intravenous; conditions: in vivo
[22] = system: Oryctolagus cuniculus; assay: Plasma concentration in New Zealand white rabbit assessed as [14C]dalbavancin level per gram of tissue at 20 mg/kg, iv after 24 hrs by liquid scintillation counting method; format: ADME, organism-based; set-up: dose 20 mg/kg, route intravenous; conditions: in vivo
[23] = system: Oryctolagus cuniculus; assay: Plasma concentration in New Zealand white rabbit assessed as [14C]dalbavancin level per gram of tissue at 20 mg/kg, iv after 72 hrs by liquid scintillation counting method; format: ADME, organism-based; set-up: dose 20 mg/kg, route intravenous; conditions: in vivo
[24] = system: Oryctolagus cuniculus; assay: Plasma concentration in New Zealand white rabbit assessed as [14C]dalbavancin level per gram of tissue at 20 mg/kg, iv after 120 hrs by liquid scintillation counting method; format: ADME, organism-based; set-up: dose 20 mg/kg, route intravenous; conditions: in vivo
[25] = system: Oryctolagus cuniculus; assay: Plasma concentration in New Zealand white rabbit assessed as [14C]dalbavancin level per gram of tissue at 20 mg/kg, iv after 336 hrs by liquid scintillation counting method; format: ADME, organism-based; set-up: dose 20 mg/kg, route intravenous; conditions: in vivo
[26] = Drug level in New Zealand white rabbit bone assessed as [14C]dalbavancin level per gram of tissue at 20 mg/kg, iv after 24 hrs by liquid scintillation counting method; format: ADME, organism-based, Oryctolagus cuniculus, Bone element; set-up: dose 20 mg/kg, route intravenous; conditions: in vivo
[27] = Drug level in New Zealand white rabbit bone assessed as [14C]dalbavancin level per gram of tissue at 20 mg/kg, iv after 72 hrs by liquid scintillation counting method; format: ADME, organism-based, Oryctolagus cuniculus, Bone element; set-up: dose 20 mg/kg, route intravenous; conditions: in vivo
[28] = Drug level in New Zealand white rabbit bone assessed as [14C]dalbavancin level per gram of tissue at 20 mg/kg, iv after 120 hrs by liquid scintillation counting method; format: ADME, organism-based, Oryctolagus cuniculus, Bone element; set-up: dose 20 mg/kg, route intravenous; conditions: in vivo
[29] = Drug level in New Zealand white rabbit bone assessed as [14C]dalbavancin level per gram of tissue at 20 mg/kg, iv after 168 hrs by liquid scintillation counting method; format: ADME, organism-based, Oryctolagus cuniculus, Bone element; set-up: dose 20 mg/kg, route intravenous; conditions: in vivo
[30] = Drug level in New Zealand white rabbit bone assessed as [14C]dalbavancin level per gram of tissue at 20 mg/kg, iv after 336 hrs by liquid scintillation counting method; format: ADME, organism-based, Oryctolagus cuniculus, Bone element; set-up: dose 20 mg/kg, route intravenous; conditions: in vivo
[31] = Drug level in New Zealand white rabbit bone marrow assessed as [14C]dalbavancin level per gram of tissue at 20 mg/kg, iv after 336 hrs by liquid scintillation counting method; format: ADME, organism-based, Oryctolagus cuniculus; set-up: dose 20 mg/kg, route intravenous; conditions: in vivo
[32] = Drug level in New Zealand white rabbit nucleus pulposus assessed as [14C]dalbavancin level per gram of tissue at 20 mg/kg, iv after 12 hrs by liquid scintillation counting method; format: ADME, organism-based, Oryctolagus cuniculus; set-up: dose 20 mg/kg, route intravenous; conditions: in vivo
[33] = Drug level in New Zealand white rabbit nucleus pulposus assessed as [14C]dalbavancin level per gram of tissue at 20 mg/kg, iv after 24 hrs by liquid scintillation counting method; format: ADME, organism-based, Oryctolagus cuniculus; set-up: dose 20 mg/kg, route intravenous; conditions: in vivo
[34] = Drug level in New Zealand white rabbit nucleus pulposus assessed as [14C]dalbavancin level per gram of tissue at 20 mg/kg, iv after 120 hrs by liquid scintillation counting method; format: ADME, organism-based, Oryctolagus cuniculus; set-up: dose 20 mg/kg, route intravenous; conditions: in vivo
[35] = Drug level in New Zealand white rabbit nucleus pulposus assessed as [14C]dalbavancin level per gram of tissue at 20 mg/kg, iv after 336 hrs by liquid scintillation counting method; format: ADME, organism-based, Oryctolagus cuniculus; set-up: dose 20 mg/kg, route intravenous; conditions: in vivo
[36] = system: Blood; assay: Drug level in New Zealand white rabbit blood assessed as [14C]dalbavancin level per gram of tissue at 20 mg/kg, iv after 24 hrs by autoradioluminography; format: ADME, organism-based, Oryctolagus cuniculus; set-up: dose 20 mg/kg, route intravenous; conditions: in vivo
[37] = Drug level in New Zealand white rabbit cerebrospinal fluid assessed as [14C]dalbavancin level per gram of tissue at 20 mg/kg, iv after 12 hrs by liquid scintillation counting method; format: ADME, organism-based, Oryctolagus cuniculus; set-up: dose 20 mg/kg, route intravenous; conditions: in vivo
[38] = system: Blood; assay: Drug level in New Zealand white rabbit blood assessed as [14C]dalbavancin level per gram of tissue at 20 mg/kg, iv after 72 hrs by autoradioluminography; format: ADME, organism-based, Oryctolagus cuniculus; set-up: dose 20 mg/kg, route intravenous; conditions: in vivo

CN[C@H]1C(=O)N[C@@H]2Cc3ccc(cc3)Oc3cc4cc(c3O[C@@H]3O[C@H](C(=O)O)[C@@H](O)[C@H](O)[C@H]3NC(=O)CCCCCCCCC(C)C)Oc3ccc(cc3Cl)[C@@H](O)[C@@H]3NC(=O)[C@H](NC(=O)[C@@H]4NC(=O)[C@@H](NC2=O)c2cc(cc(O)c2Cl)Oc2cc1ccc2O)c1ccc(O)c(c1)-c1c(O[C@H]2O[C@H](CO)[C@@H](O)[C@H](O)[C@@H]2O)cc(O)cc1[C@@H](C(=O)NCCCN(C)C)NC3=O [DALBAVANCIN]
Drug uptake [1]: 1.43 µg
Drug uptake [2]: 4.25 µg
Drug uptake [3]: 2.66 µg/g
Drug uptake [4]: 19.19 µg
Drug uptake [5]: 8.04 µg
Drug uptake [6]: 40.2 µg/g
Drug uptake [7]: 29.9 µg/g
Drug uptake [8]: 18.9 µg
Drug uptake [9]: 30.3 µg/g
Drug uptake [10]: 0.8 µg/g
MIC90 [11]: ≤ 0.03 µg/mL
Drug uptake [12]: 1.5 µg/g
Drug uptake [13]: 7.28 µg
Drug uptake [14]: 6.56 µg
Drug uptake [15]: 1.56 µg/g
Drug uptake [16]: 0.39 µg
Drug uptake [17]: 0.38 µg/g
Drug uptake [18]: 0.34 µg/g
Drug uptake [19]: 18.7 µg/g
Drug uptake [20]: 22.1 µg/g
Drug uptake [21]: 4.56 µg
Cp [22]: 19.3 µg/g
Cp [23]: 4.5 µg
Cp [24]: 2.78 µg
Cp [25]: 0.94 µg
Drug uptake [26]: 5.14 µg/g
Drug uptake [27]: 3.94 µg/g
Drug uptake [28]: 3.46 µg/g
Drug uptake [29]: 3.39 µg/g
Drug uptake [30]: 1.96 µg/g
Drug uptake [31]: 12 µg/g
Drug uptake [32]: 0.86 µg/g
Drug uptake [33]: 0.76 µg/g
Drug uptake [34]: 0.75 µg/g
Drug uptake [35]: 0.6 µg/g
Drug uptake [36]: 14.49 µg
Drug uptake [37]: 0.08 µg/g
Drug uptake [38]: 5.02 µg/g
